Data: ChEMBL document CHEMBL2331379, “Synthesis of derivatives of methyl rosmarinate and their inhibitory activities against matrix metalloproteinase-1 (MMP-1)” (Eur J Med Chem, 2013)
pIC50: −log10 of the molar value.

Columns and labels:
Interstitial collagenase = target: T1, Interstitial collagenase (Homo sapiens, UniProt P03956); experiment: Inhibition of human recombinant MMP1 catalytic domain using Dnp-Pro-beta-cyclohexyl-Ala-Gly-Cys(Me)-His-Lys-(Nma)-NH2 as substrate preincubated with enzyme for 30 mins prior to substrate addition monitored for 60 mins by fluorometric assay
T1 sequence (P03956 whole entry): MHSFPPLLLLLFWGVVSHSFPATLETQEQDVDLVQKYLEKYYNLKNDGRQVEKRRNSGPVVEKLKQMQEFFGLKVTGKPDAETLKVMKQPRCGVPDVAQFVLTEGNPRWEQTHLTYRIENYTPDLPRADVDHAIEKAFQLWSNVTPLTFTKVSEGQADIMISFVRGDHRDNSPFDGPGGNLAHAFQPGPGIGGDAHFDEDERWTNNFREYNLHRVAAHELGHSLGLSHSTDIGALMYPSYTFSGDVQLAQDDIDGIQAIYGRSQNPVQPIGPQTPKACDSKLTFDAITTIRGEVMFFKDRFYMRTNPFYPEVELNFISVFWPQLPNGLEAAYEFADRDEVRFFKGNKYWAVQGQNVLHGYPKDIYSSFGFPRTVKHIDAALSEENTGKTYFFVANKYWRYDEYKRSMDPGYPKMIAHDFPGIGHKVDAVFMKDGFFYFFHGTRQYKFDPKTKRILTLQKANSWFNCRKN

[1] = target: Macrophage metalloelastase (Homo sapiens, UniProt P39900); experiment: Inhibition of MMP12 (unknown origin)
Chain of Macrophage metalloelastase (P39900 whole entry): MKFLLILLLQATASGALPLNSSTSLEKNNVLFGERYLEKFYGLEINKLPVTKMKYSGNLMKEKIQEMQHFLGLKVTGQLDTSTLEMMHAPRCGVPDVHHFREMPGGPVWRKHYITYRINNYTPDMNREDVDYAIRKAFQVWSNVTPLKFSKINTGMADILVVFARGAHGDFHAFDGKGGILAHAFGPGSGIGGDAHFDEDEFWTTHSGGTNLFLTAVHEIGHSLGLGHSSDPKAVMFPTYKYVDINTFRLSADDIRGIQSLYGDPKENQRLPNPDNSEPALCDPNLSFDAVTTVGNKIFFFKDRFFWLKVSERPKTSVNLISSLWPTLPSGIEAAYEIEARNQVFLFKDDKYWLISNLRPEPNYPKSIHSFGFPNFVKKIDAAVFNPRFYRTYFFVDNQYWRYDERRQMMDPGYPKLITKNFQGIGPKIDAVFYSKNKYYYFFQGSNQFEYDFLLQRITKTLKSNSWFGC

Collagenase 3 = Collagenase 3 (Homo sapiens, UniProt P45452); experiment: Inhibition of MMP13 (unknown origin)
[2] = target: Matrix metalloproteinase-9 (Homo sapiens, UniProt P14780); experiment: Inhibition of MMP9 (unknown origin)
Chain of Matrix metalloproteinase-9 (P14780 whole entry): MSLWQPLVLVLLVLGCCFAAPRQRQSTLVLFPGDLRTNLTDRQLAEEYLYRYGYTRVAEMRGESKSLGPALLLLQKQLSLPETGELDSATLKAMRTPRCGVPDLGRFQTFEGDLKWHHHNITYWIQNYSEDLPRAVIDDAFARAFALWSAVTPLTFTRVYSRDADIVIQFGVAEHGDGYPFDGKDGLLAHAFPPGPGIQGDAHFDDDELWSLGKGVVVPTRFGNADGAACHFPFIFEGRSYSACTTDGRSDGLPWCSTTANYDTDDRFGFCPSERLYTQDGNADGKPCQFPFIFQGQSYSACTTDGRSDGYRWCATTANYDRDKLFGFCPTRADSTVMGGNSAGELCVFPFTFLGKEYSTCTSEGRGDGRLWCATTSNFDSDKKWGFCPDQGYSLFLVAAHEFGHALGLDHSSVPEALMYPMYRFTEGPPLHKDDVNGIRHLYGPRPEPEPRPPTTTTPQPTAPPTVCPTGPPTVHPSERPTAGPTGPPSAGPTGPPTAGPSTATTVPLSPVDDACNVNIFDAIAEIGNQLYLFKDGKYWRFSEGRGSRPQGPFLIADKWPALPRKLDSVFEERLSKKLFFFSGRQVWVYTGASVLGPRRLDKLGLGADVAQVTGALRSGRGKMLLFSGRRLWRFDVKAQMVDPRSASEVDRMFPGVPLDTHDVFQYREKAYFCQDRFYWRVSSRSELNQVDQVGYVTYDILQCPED

Stromelysin-1 = Stromelysin-1 (Homo sapiens, UniProt P08254); experiment: Inhibition of MMP3 (unknown origin)
Chain of Stromelysin-1 (P08254 whole entry): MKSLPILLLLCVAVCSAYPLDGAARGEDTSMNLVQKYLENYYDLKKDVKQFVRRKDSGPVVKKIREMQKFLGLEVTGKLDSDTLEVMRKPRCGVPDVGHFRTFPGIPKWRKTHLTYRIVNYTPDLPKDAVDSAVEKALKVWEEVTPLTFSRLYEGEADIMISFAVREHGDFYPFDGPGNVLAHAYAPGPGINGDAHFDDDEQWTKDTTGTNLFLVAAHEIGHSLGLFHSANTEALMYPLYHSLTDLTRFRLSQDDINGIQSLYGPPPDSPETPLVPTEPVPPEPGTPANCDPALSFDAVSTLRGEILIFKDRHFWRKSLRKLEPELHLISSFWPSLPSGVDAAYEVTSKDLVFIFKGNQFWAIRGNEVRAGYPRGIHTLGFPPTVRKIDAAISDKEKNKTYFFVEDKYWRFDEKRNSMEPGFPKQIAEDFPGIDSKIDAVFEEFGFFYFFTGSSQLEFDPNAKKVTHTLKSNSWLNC

[3] = target: 72 kDa type IV collagenase (Homo sapiens, UniProt P08253); experiment: Inhibition of MMP2 (unknown origin)
Chain of 72 kDa type IV collagenase (P08253 whole entry): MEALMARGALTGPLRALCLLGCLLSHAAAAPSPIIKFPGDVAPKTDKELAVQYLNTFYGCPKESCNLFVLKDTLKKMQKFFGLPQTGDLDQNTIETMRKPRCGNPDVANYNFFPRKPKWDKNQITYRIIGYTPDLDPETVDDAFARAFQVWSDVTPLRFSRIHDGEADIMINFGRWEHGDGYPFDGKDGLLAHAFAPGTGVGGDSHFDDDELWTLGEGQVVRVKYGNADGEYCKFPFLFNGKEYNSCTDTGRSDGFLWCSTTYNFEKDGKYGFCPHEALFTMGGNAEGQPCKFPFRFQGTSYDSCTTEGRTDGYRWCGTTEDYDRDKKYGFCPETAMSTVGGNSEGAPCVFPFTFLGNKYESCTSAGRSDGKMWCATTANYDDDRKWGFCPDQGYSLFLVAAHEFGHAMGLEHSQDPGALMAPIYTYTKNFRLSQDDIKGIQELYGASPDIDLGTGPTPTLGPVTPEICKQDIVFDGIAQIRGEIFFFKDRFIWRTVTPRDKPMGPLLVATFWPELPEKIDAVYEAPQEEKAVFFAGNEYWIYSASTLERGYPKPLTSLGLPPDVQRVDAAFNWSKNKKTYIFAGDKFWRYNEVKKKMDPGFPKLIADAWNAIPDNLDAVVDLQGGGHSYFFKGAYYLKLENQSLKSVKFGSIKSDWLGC

Row | Structure (SMILES) | pIC50 (Interstitial collagenase) | also measured
1 | COc1ccc(CC(OC(=O)/C=C/c2ccc(C(F)(F)F)cc2)C(=O)O)cc1OC (stereo not given) | 4.41 | –
2 | COc1ccc(CC(OC(=O)/C=C/c2ccccc2)C(=O)O)cc1OC (stereo not given) | 4.27 | –
3 | COc1ccc(CC(OC(=O)/C=C/c2ccc(C)cc2)C(=O)O)cc1OC (stereo not given) | < 4.00 | –
4 | COc1ccc(CC(OC(=O)/C=C/c2ccc(F)cc2)C(=O)O)cc1OC (stereo not given) | 4.38 | –
5 | COc1ccc(CC(OC(=O)/C=C/c2ccc(Cl)cc2)C(=O)O)cc1OC (stereo not given) | 4.37 | –
6 | COc1ccc(CC(OC(=O)/C=C/c2ccc(Br)cc2)C(=O)O)cc1OC (stereo not given) | 4.97 | –
7 | COc1ccc(CC(OC(=O)/C=C/c2ccccc2F)C(=O)O)cc1OC (stereo not given) | 4.46 | –
8 | COc1ccc(CC(OC(=O)/C=C/c2ccc([N+](=O)[O-])cc2)C(=O)O)cc1OC (stereo not given) | 4.41 | –
9 | COc1ccc(CC(OC(=O)/C=C/c2ccc(-c3ccccc3)cc2)C(=O)O)cc1OC (stereo not given) | 5.07 | –
10 | COc1ccc(CC(OC(=O)/C=C/c2ccc(OCc3ccccc3)cc2)C(=O)O)cc1OC (stereo not given) | 5.05 | –
11 | COc1ccc(/C=C/C(=O)OC(Cc2ccc(OC)c(OC)c2)C(=O)O)cc1 (stereo not given) | < 4.00 | –
12 | COc1ccc(CC(OC(=O)/C=C/c2ccc(O)c(O)c2)C(=O)O)cc1OC (stereo not given) | 4.86 | –
13 | COc1ccc(/C=C/C(=O)OC(Cc2ccc(OC)c(OC)c2)C(=O)O)cc1OC (stereo not given) | < 4.00 | –
14 | COc1ccc(CC(OC(=O)/C=C/c2ccc(OCc3ccccc3)c(OCc3ccccc3)c2)C(=O)O)cc1OC (stereo not given) | 5.60 | –
15 | COc1ccc(CC(OC(=O)/C=C/c2ccc3ccccc3c2)C(=O)O)cc1OC (stereo not given) | < 4.00 | –
16 | COc1ccc(CC(OC(=O)/C=C/c2ccc3c(c2)OCC3)C(=O)O)cc1OC (stereo not given) | < 4.00 | –
17 | COc1ccc(CC(OC(=O)/C=C/c2ccc(Br)cc2)C(=O)NO)cc1OC (stereo not given) | 5.12 | –
18 | COc1ccc(CC(OC(=O)/C=C/c2ccc(-c3ccccc3)cc2)C(=O)NO)cc1OC (stereo not given) | 5.26 | –
19 | COc1ccc(CC(OC(=O)/C=C/c2ccc(OCc3ccccc3)cc2)C(=O)NO)cc1OC (stereo not given) | 5.44 | –
20 | COc1ccc(CC(OC(=O)/C=C/c2ccc(OCc3ccccc3)c(OCc3ccccc3)c2)C(=O)NO)cc1OC (stereo not given) | 5.38 | –
21 | COc1ccc(CC(OC(=O)/C=C/c2ccc3ccccc3c2)C(=O)NO)cc1OC (stereo not given) | 5.17 | –
22 | COc1ccc(CC(OC(=O)/C=C/c2ccc3c(c2)OCC3)C(=O)NO)cc1OC (stereo not given) | 4.97 | –
23 | C=CCOC(=O)C(Cc1ccc(OC)c(OC)c1)OC(=O)/C=C/c1ccc(C(F)(F)F)cc1 (stereo not given) | < 4.00 | –
24 | C=CCOC(=O)C(Cc1ccc(OC)c(OC)c1)OC(=O)/C=C/c1ccc(Cl)cc1 (stereo not given) | < 4.00 | –
25 | C=CCOC(=O)C(Cc1ccc(OC)c(OC)c1)OC(=O)/C=C/c1ccc(Br)cc1 (stereo not given) | < 4.00 | –
26 | C=CCOC(=O)C(Cc1ccc(OC)c(OC)c1)OC(=O)/C=C/c1ccc([N+](=O)[O-])cc1 (stereo not given) | < 4.00 | –
27 | C=CCOC(=O)C(Cc1ccc(OC)c(OC)c1)OC(=O)/C=C/c1ccc(OCc2ccccc2)cc1 (stereo not given) | < 4.00 | –
28 | COc1ccc(C[C@@H](OC(=O)/C=C/c2ccc(OCc3ccccc3)c(OCc3ccccc3)c2)C(=O)O)cc1OC | 6.40 | pIC50 [1]: 5.68; pIC50 (Collagenase 3): 5.35; pIC50 [2]: 5.17; pIC50 (Stromelysin-1): 5.40; pIC50 [3]: 5.49
29 | COc1ccc(C[C@H](OC(=O)/C=C/c2ccc(OCc3ccccc3)c(OCc3ccccc3)c2)C(=O)O)cc1OC | 6.10 | pIC50 [1]: 5.64; pIC50 (Collagenase 3): 5.27; pIC50 [2]: 5.22; pIC50 (Stromelysin-1): 5.47; pIC50 [3]: 5.52
30 | O=C(/C=C/c1ccc(O)c(O)c1)O[C@H](Cc1ccc(O)c(O)c1)C(=O)O [ROSMARINIC ACID] | 5.25 | –
